Laboratory results as given in patent US20200060276A1, “THIAZOLE COMPOUND AND HERBICIDE” (OAT Agrio Co., Ltd., priority 2017, published 2020).

Columns and labels:
Assay type in all cases: in vivo
[1] = system: Echinochloa crus-galli (L.) P. Beauv. var. formosensis Ohwi; test: Test for Herbicidal Effect in Flooding Treatment (#1), ECHDG; conditions: flooding treatment at seeding, dose 2 kg/ha, visual observation on day 21
Outline: (§1)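 Visual scores from 0 (<10% inhibition) to 5 (≥90% or complete withering) were taken 21 days after treatment of glasshouse-grown plants. Seeds were sown in soil flooded for 24 h beforehand, and compound was applied dropwise onto the surface at 2 kg/ha as an acetone solution diluted in water with Tween 80.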

Scirpus juncoides = test: Test for Herbicidal Effect in Flooding Treatment (#1), SCIJU; conditions: flooding treatment at seeding, dose 2 kg/ha, visual observation on day 21
Outline: as §1

Cyperus microiria = test: Test for Herbicidal Effect in Flooding Treatment (#1), CYMIC; conditions: flooding treatment at seeding, dose 2 kg/ha, visual observation on day 21
Description: (#1) Test for Herbicidal Effect in Flooding Treatment: Styrol cups each having an opening diameter of 8 cm (about 52 cm^2) were respectively filled with soil (45 ml) which had been passed through a sieve (2 mm). Water (about 115 ml) was mixed with the soil such that the soil was flooded. After the soil stood still for 24 hours, Monochoria vaginalis, Echinochloa crus-galli (L.) P. Beauv. var. formosensis Ohwi, Cyperus difformis (umbrella sedge), and Scirpus juncoides were seeded. Each of the compounds of the present invention was dissolved in acetone, and the obtained product was then diluted with water containing Tween 80®. Each of the resultant chemical solutions was dropped on the entire surface of an associated one of treatment sections, so that each section was treated with 1 ml of the respective chemical solution (a dose of 2 kg/ha). After the treatment, the plants were grown in a glasshouse. On day 21, a survey was conducted on the herbicidal activity by visual observation, and evaluation was made according to the following criteria. 0: Growth inhibition effect is less than 10%. 1: Growth inhibition effect is equal to or greater than 10%, and less than 30%. 2; Growth inhibition effect is equal to or greater than 30%, and less than 50%. 3: Growth inhibition effect equal to or greater than 50%, and less than 70%. 4: Growth inhibition effect is equal to or greater than 70%, and less than 90%. 5: Growth inhibition effect is equal to or greater than 90%, or complete withering is achieved. ECHDG=Echinochloa crus-galli (L.) P. Beauv. var. formosensis Ohwi, MONVA=Monochoria vaginalis, SCIJU=Scirpus juncoides, CYMIC=Cyperus microiria.

[2] = system: Echinochloa crus-galli (L.) P. Beauv. var. formosensis Ohwi; test: Test for Herbicidal Effect in Flooding Treatment (#2), ECHDG at 2-2.5 leaf stage; conditions: flooding treatment at 2-2.5 leaf stage, dose 0.2 kg/ha, visual observation on day 21
Outline: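 Flooded muddy soil was seeded with the weed, and at 2–2.5 leaf stage compound in acetone/Tween 80 water was dropped on the water surface at 0.2 kg/ha. Plants were kept in a glasshouse and scored visually on day 21 from 0 (<10% growth inhibition) to 5 (≥90% or complete withering).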

Compound | ECHDG #1 herbicidal effect (growth inhibition grade) [1] | SCIJU #1 herbicidal effect (growth inhibition grade) (Scirpus juncoides) | CYMIC #1 herbicidal effect (growth inhibition grade) (Cyperus microiria) | ECHDG (2-2.5L) #2 herbicidal effect (growth inhibition grade) [2]
O=S(=O)(Cc1ccccc1OC(F)(F)F)c1ncc(Cl)s1 [Compound 1C-46] | 5 (Growth inhibition effect is equal to or greater than 90%, or complete withering is achieved) | 5 (Growth inhibition effect is equal to or greater than 90%, or complete withering is achieved) | 5 (Growth inhibition effect is equal to or greater than 90%, or complete withering is achieved) | 5 (Growth inhibition effect is equal to or greater than 90%, or complete withering is achieved)
COc1cccc(CS(=O)(=O)c2ncc(Cl)s2)c1C [Compound 1C-67] | 5 (Growth inhibition effect is equal to or greater than 90%, or complete withering is achieved) | 5 (Growth inhibition effect is equal to or greater than 90%, or complete withering is achieved) | 5 (Growth inhibition effect is equal to or greater than 90%, or complete withering is achieved) | 5 (Growth inhibition effect is equal to or greater than 90%, or complete withering is achieved)
COc1cc(CS(=O)(=O)c2ncc(Cl)s2)ccc1C [Compound 1C-68] | 5 (Growth inhibition effect is equal to or greater than 90%, or complete withering is achieved) | 5 (Growth inhibition effect is equal to or greater than 90%, or complete withering is achieved) | 5 (Growth inhibition effect is equal to or greater than 90%, or complete withering is achieved) | 4 (Growth inhibition effect is equal to or greater than 70%, and less than 90%)
COc1ccc(Cl)c(CS(=O)(=O)c2ncc(Cl)s2)c1F [Compound 1C-71] | 5 (Growth inhibition effect is equal to or greater than 90%, or complete withering is achieved) | 5 (Growth inhibition effect is equal to or greater than 90%, or complete withering is achieved) | 5 (Growth inhibition effect is equal to or greater than 90%, or complete withering is achieved) | 5 (Growth inhibition effect is equal to or greater than 90%, or complete withering is achieved)
COc1ccc(F)c(CS(=O)(=O)c2ncc(Cl)s2)c1Cl [Compound 1C-72] | 5 (Growth inhibition effect is equal to or greater than 90%, or complete withering is achieved) | 5 (Growth inhibition effect is equal to or greater than 90%, or complete withering is achieved) | 5 (Growth inhibition effect is equal to or greater than 90%, or complete withering is achieved) | 5 (Growth inhibition effect is equal to or greater than 90%, or complete withering is achieved)
COc1c(F)c(F)cc(CS(=O)(=O)c2ncc(Cl)s2)c1F [Compound 1C-74] | 5 (Growth inhibition effect is equal to or greater than 90%, or complete withering is achieved) | 5 (Growth inhibition effect is equal to or greater than 90%, or complete withering is achieved) | 5 (Growth inhibition effect is equal to or greater than 90%, or complete withering is achieved) | 3 (Growth inhibition effect equal to or greater than 50%, and less than 70%)
CCOc1cc(CS(=O)(=O)c2ncc(Cl)s2)ccc1F [Compound 1C-76] | 5 (Growth inhibition effect is equal to or greater than 90%, or complete withering is achieved) | 5 (Growth inhibition effect is equal to or greater than 90%, or complete withering is achieved) | 5 (Growth inhibition effect is equal to or greater than 90%, or complete withering is achieved) | 4 (Growth inhibition effect is equal to or greater than 70%, and less than 90%)
CCOc1ccc(Cl)c(CS(=O)(=O)c2ncc(Cl)s2)c1 [Compound 1C-80] | 5 (Growth inhibition effect is equal to or greater than 90%, or complete withering is achieved) | 5 (Growth inhibition effect is equal to or greater than 90%, or complete withering is achieved) | 5 (Growth inhibition effect is equal to or greater than 90%, or complete withering is achieved) | 5 (Growth inhibition effect is equal to or greater than 90%, or complete withering is achieved)
O=S(=O)(Cc1cccc(OC(F)F)c1)c1ncc(Cl)s1 [Compound 1C-84] | 5 (Growth inhibition effect is equal to or greater than 90%, or complete withering is achieved) | 5 (Growth inhibition effect is equal to or greater than 90%, or complete withering is achieved) | 5 (Growth inhibition effect is equal to or greater than 90%, or complete withering is achieved) | 3 (Growth inhibition effect equal to or greater than 50%, and less than 70%)
O=S(=O)(Cc1cccc(OC(F)(F)F)c1)c1ncc(Cl)s1 [Compound 1C-85, 5-chloro-2-{[3-(trifluoromethoxy)phenyl][methanesulfonyl]}-1,3-thiazole] | 5 (Growth inhibition effect is equal to or greater than 90%, or complete withering is achieved) | 5 (Growth inhibition effect is equal to or greater than 90%, or complete withering is achieved) | 5 (Growth inhibition effect is equal to or greater than 90%, or complete withering is achieved) | 1 (Growth inhibition effect is equal to or greater than 10%, and less than 30%)
COc1ccc(CS(=O)(=O)c2ncc(Cl)s2)cc1 [Compound 1C-87] | 5 (Growth inhibition effect is equal to or greater than 90%, or complete withering is achieved) | 5 (Growth inhibition effect is equal to or greater than 90%, or complete withering is achieved) | 5 (Growth inhibition effect is equal to or greater than 90%, or complete withering is achieved) | 1 (Growth inhibition effect is equal to or greater than 10%, and less than 30%)
COc1ccc(CS(=O)(=O)c2ncc(Cl)s2)cc1Cl [Compound 1C-89] | 5 (Growth inhibition effect is equal to or greater than 90%, or complete withering is achieved) | 5 (Growth inhibition effect is equal to or greater than 90%, or complete withering is achieved) | 5 (Growth inhibition effect is equal to or greater than 90%, or complete withering is achieved) | 3 (Growth inhibition effect equal to or greater than 50%, and less than 70%)
COc1cc(F)c(CS(=O)(=O)c2ncc(Cl)s2)c(F)c1 [Compound 1C-90] | 5 (Growth inhibition effect is equal to or greater than 90%, or complete withering is achieved) | 5 (Growth inhibition effect is equal to or greater than 90%, or complete withering is achieved) | 5 (Growth inhibition effect is equal to or greater than 90%, or complete withering is achieved) | 5 (Growth inhibition effect is equal to or greater than 90%, or complete withering is achieved)
CCOc1ccc(CS(=O)(=O)c2ncc(Cl)s2)c(Cl)c1 [Compound 1C-92] | 5 (Growth inhibition effect is equal to or greater than 90%, or complete withering is achieved) | 5 (Growth inhibition effect is equal to or greater than 90%, or complete withering is achieved) | 5 (Growth inhibition effect is equal to or greater than 90%, or complete withering is achieved) | 5 (Growth inhibition effect is equal to or greater than 90%, or complete withering is achieved)
